We go through 7 molecules from EP0172962A1, “Prostaglandins” (ONO PHARMACEUTICAL CO., LTD., priority 1984, dated 1986).

Series [1] deals with cells originated from human mouth tumour (KB-cells). In words: Test on inhibition of proliferation using cells originated from human mouth tumour (KB-cells). The note with it: 96 h, stationary culture at 37°C for 4 days, Trypan Blue staining, surviving cell number relative to control. It is filed as cell-based. The method, then: The experimental methods and the results are described below. Test on Inhibition of Proliferation Using Cells Originated
. The cells originated from human mouth tumour (KB-cells) were added to Eagle's MEM culture solution containing 10% bovine fetal serum, the number of cells in the culture solution was adjusted to 1 ×10^5 cells/ml, a solution in ethanol of compounds of the present invention was added to give a concentration of 5 µg/ml or below and the mixture was subjected to stationary culture at 37°C for 4 days. As a control, a culture solution containing 0.1% of ethanol was similarly cultured. After the culture, the cells were stained by the Trypan Blue staining method, and the surviving cell number was measured to determine the IC50 value from the degree of inhibition relative to the control.

The test system of another series is ICR male mice. Nature of the series: Test on increase of white blood cell (hematological test). Conditions: 3 mg/kg i.p. once a day for 14 days, blood collected on the day following the final administration. It counts as in vivo. As for the experimental part: The experimental methods and results are described below. A solution of a compound of the present invention in ethanol was diluted with l% Tween 80 (registered Trade Mark) and the solution was intraperitoneally administered to ICR male mice of 6-7 weeks old once a day for 14 days. On the day following the final administration, the blood was collected by cardiac puncture with Anglot® (containing heparin and EDTA) as an anticoagulant. The blood was diluted with Seruento (registered Trade Mark), and the numbers of white blood cells and red blood cells were counted by a Micro Cell Counter (model CC-120).

Another series is described as follows: Acute toxicity. Conditions: in vivo, iv; intravenously.

≈ marks a conversion by molar mass, not a printed value.

As to `CCCCC[C@H](O)/C=C/[C@H]1C(=O)C=C[C@@H]1C/C=C\CCCC(=O)NCCOC(=O)CCC/C=C\C[C@H]1C=CC(=O)[C@@H]1/C=C/[C@@H](O)CCCCC` [Example 1(g)], in series [1], inhibition was half-maximal at 1.8 µg/mL (≈ 2.59 µM) (IC50).
On the same count and under the same terms, the same measure for `CCCCC[C@H](O)/C=C/[C@H]1C(=O)C=C[C@@H]1C/C=C\CCCC(=O)OCCOC(=O)CCC/C=C\C[C@H]1C=CC(=O)[C@@H]1/C=C/[C@@H](O)CCCCC` [Example 1(h)]: < 1 µg/mL; for `CCCCCC=CC=C1C(=O)C=CC1CC=CCCCC(=O)NCCNC(=O)CCCC=CCC1C=CC(=O)C1=CC=CCCCCC` (stereo not drawn) [Example 4]: 0.47 µg/mL (≈ 0.715 µM).
`CCCCC[C@H](O)/C=C/[C@H]1C(=O)C[C@H](O)[C@@H]1C/C=C\CCCC(=O)NCCCNC(=O)CCC/C=C\C[C@H]1[C@@H](O)CC(=O)[C@@H]1/C=C/[C@@H](O)CCCCC` [Example 3(a)] registered an IC50 in series [1] of 1.9 µg/mL (≈ 2.56 µM). This IC50 lies about 4-fold higher than the previous one.
As to `CCCCC[C@H](O)/C=C/[C@H]1C(=O)C=C[C@@H]1C/C=C\CCCC(=O)NCCCNC(=O)CCC/C=C\C[C@H]1C=CC(=O)[C@@H]1/C=C/[C@@H](O)CCCCC` [Example 1(e), N,N'-bis[(5Z,13E)-(15S)-11-oxo-15-hydroxy-prosta-5,9,13-trienoyl]trimethylenediamine], in the series with ICR male mice (red blood cells), the “RBC (x10^4/mm^3)” value is recorded as 793 ± 22.5 (p <0.001) x10^4/mm^3. Besides, the “WBC (x10^2/mm^3)” value in the series with ICR male mice (white blood cells) is reported as 158 ± 17.0 (p <0.05) x10^2/mm^3. In the series “Acute toxicity”, the LD50 was > 100 mg/kg.
In turn, `CCCCC[C@H](O)/C=C/[C@H]1C(=O)C=C[C@@H]1C/C=C\CCCC(=O)NCCCCNC(=O)CCC/C=C\C[C@H]1C=CC(=O)[C@@H]1/C=C/[C@@H](O)CCCCC` [Example 1(f)] came in with an IC50 in series [1] of 1.17 µg/mL (≈ 1.62 µM).
The molecule `CCCCC[C@H](O)/C=C/[C@H]1C(=O)C=C[C@@H]1C/C=C\CCCC(=O)NCCNC(=O)CCC/C=C\C[C@H]1C=CC(=O)[C@@H]1/C=C/[C@@H](O)CCCCC` [Example 1] yielded a 50% inhibitory concentration (IC50) in series [1] of 0.87 µg/mL (≈ 1.26 µM).

One may read the IC50 as the concentration needed to halve the response being measured. High values mean weaker potency in that assay, low ones greater potency in that assay. As usually defined, the LD50 is the dose expected to kill half of the subjects tested. A high value points to lower toxicity.
